Data from ChEMBL document CHEMBL1138126, “Tyrosine kinase inhibitors. 19. 6-Alkynamides of 4-anilinoquinazolines and 4-anilinopyrido[3,4-d]pyrimidines as irreversible inhibitors of the erbB family of tyrosine kinase receptors” (J Med Chem, 2006).
pIC50: −log10 of the molar value. Each block holds one compound with its values, some of them ahead of it. Activity calls are given as the source filed them. The calls are words filed in the database; no cut-off is given here.

How the values were obtained:
[1] = molecular target: Receptor tyrosine-protein kinase erbB-4 (Homo sapiens, UniProt Q15303)
Description: Inhibition of erbB4 fusion protein expressed in baculovirus by ELISA

[2] = molecular target: T1, Epidermal growth factor receptor (Homo sapiens, UniProt P00533); experiment: Inhibition of erbB1 fusion protein expressed in baculovirus by ELISA
[3] = molecular target: T1, Epidermal growth factor receptor; experiment: Inhibition of EGF stimulated human erbB1 autophosphorylation in NIH3T3 cells
[4] = molecular target: T2, Receptor tyrosine-protein kinase erbB-2 (Homo sapiens, UniProt P04626)
Description: Inhibition of HER stimulated human erbB autophosphorylation in MDA-MB-453 cells

[5] = molecular target: T2, Receptor tyrosine-protein kinase erbB-2; remark: listed apart in the source
Description: Inhibition of erbB2 fusion protein expressed in baculovirus by ELISA

[6] = molecular target: Fibroblast growth factor receptor (Homo sapiens, UniProt P22607+P11362+P22455+P21802); experiment: Inhibition of FGFR; format: protein assay
[7] = system: Mus musculus; experiment: Antitumor activity in NCr nu/nu mice implanted with H125 NSC xenografts at 40 mg/kg, po; format: functional, organism-based; design: dose 40 mg/kg
[8] = AUC(0-tz) in dog at 5 mg/kg, iv; format: ADME, organism-based, Canis lupus familiaris; design: dose 5 mg/kg, route intravenous; details: plasma
[9] = Oral bioavailability in dog at 15 mg/kg; format: ADME, organism-based, Canis lupus familiaris; details: in vivo
[10] = Volume of distribution in monkey at 5 mg/kg, iv; format: ADME, organism-based, Macaca mulatta; design: dose 5 mg/kg, route intravenous; details: rhesus monkey, in vivo, read-out: Vdss
[11] = AUC(0-tz) in dog at 15 mg/kg, po; format: ADME, organism-based, Canis lupus familiaris; design: dose 15 mg/kg, route oral; details: plasma
[12] = AUC(0-tz) in rat at 5 mg/kg, iv; format: ADME, organism-based; design: dose 5 mg/kg, route intravenous; details: plasma
[13] = Volume of distribution in dog at 5 mg/kg, iv; format: ADME, organism-based, Canis lupus familiaris; design: dose 5 mg/kg, route intravenous; details: in vivo, read-out: Vdss
[14] = molecular target: T2, Receptor tyrosine-protein kinase erbB-2; remark: listed apart in the source
Description: Inhibition of ligand stimulated erbB2 autophosphorylation in T24 NIH cells

[15] = Tmax in rat at 15 mg/kg, po; format: ADME, organism-based; design: dose 15 mg/kg, route oral; details: in vivo
[16] = Plasma clearance in rat at 5 mg/kg, iv; format: ADME, organism-based; design: dose 5 mg/kg, route intravenous
[17] = Tmax in monkey at 30 mg/kg, po; format: ADME, organism-based, Macaca mulatta; design: dose 30 mg/kg, route oral; details: rhesus monkey, in vivo
[18] = Half life in rat at 5 mg/kg, iv; format: ADME, organism-based; design: dose 5 mg/kg, route intravenous; details: in vivo
[19] = Oral bioavailability in rat at 15 mg/kg; format: ADME, organism-based; details: in vivo
[20] = Cmax in dog at 15 mg/kg, po; format: ADME, organism-based, Canis lupus familiaris; design: dose 15 mg/kg, route oral; details: in vivo
[21] = Cmax in rat at 15 mg/kg, po; format: ADME, organism-based; design: dose 15 mg/kg, route oral; details: in vivo
[22] = system: Mus musculus; experiment: Antitumor activity in SCID mice implanted with SF 767 xenografts at 40 mg/kg, po; format: functional, organism-based; design: dose 40 mg/kg; details: CB17
[23] = AUC(0-tz) in rat at 15 mg/kg, po; format: ADME, organism-based; design: dose 15 mg/kg, route oral; details: plasma
[24] = system: Mus musculus; experiment: Antitumor activity in NCr nu/nu mice implanted with A431 xenografts at 10 mg/kg, po; format: functional, organism-based; design: dose 10 mg/kg
[25] = Volume of distribution in rat at 5 mg/kg, iv; format: ADME, organism-based; design: dose 5 mg/kg, route intravenous; details: in vivo, read-out: Vdss
[26] = Tmax in dog at 15 mg/kg, po; format: ADME, organism-based, Canis lupus familiaris; design: dose 15 mg/kg, route oral; details: in vivo
[27] = Half life in dog at 5 mg/kg, iv; format: ADME, organism-based, Canis lupus familiaris; design: dose 5 mg/kg, route intravenous; details: in vivo
[28] = Oral bioavailability in monkey at 30 mg/kg; format: ADME, organism-based, Macaca mulatta; details: rhesus monkey, in vivo
[29] = Cmax in monkey at 30 mg/kg, po; format: ADME, organism-based, Macaca mulatta; design: dose 30 mg/kg, route oral; details: rhesus monkey, in vivo
[30] = molecular target: Platelet-derived growth factor receptor (Homo sapiens, UniProt P09619+P16234); experiment: Inhibition of PDGF receptor; format: protein-complex assay
[31] = system: Mus musculus; experiment: Antitumor activity in SCID mice implanted with BXPC3 xenografts at 40 mg/kg, po; format: functional, organism-based; design: dose 40 mg/kg; details: CB17
[32] = AUC(0-tz) in monkey at 5 mg/kg, iv; format: ADME, organism-based, Macaca mulatta; design: dose 5 mg/kg, route intravenous; details: rhesus monkey, plasma
[33] = system: Mus musculus; experiment: Antitumor activity in NCr nu/nu mice implanted with SKOV3 xenografts at 40 mg/kg, po; format: functional, organism-based; design: dose 40 mg/kg
[34] = Plasma clearance in dog at 5 mg/kg, iv; format: ADME, organism-based, Canis lupus familiaris; design: dose 5 mg/kg, route intravenous
[35] = AUC(0-tz) in monkey at 30 mg/kg, po; format: ADME, organism-based, Macaca mulatta; design: dose 30 mg/kg, route oral; details: rhesus monkey, plasma
[36] = molecular target: Insulin receptor (Homo sapiens, UniProt P06213); experiment: Inhibition of insulin receptor
[37] = Half life in monkey at 5 mg/kg, iv; format: ADME, organism-based, Macaca mulatta; design: dose 5 mg/kg, route intravenous; details: rhesus monkey, in vivo
[38] = Plasma clearance in monkey at 5 mg/kg, iv; format: ADME, organism-based, Macaca mulatta; design: dose 5 mg/kg, route intravenous; details: rhesus monkey

Sequence of Receptor tyrosine-protein kinase erbB-4 (Q15303 whole entry, the tested form may be a part): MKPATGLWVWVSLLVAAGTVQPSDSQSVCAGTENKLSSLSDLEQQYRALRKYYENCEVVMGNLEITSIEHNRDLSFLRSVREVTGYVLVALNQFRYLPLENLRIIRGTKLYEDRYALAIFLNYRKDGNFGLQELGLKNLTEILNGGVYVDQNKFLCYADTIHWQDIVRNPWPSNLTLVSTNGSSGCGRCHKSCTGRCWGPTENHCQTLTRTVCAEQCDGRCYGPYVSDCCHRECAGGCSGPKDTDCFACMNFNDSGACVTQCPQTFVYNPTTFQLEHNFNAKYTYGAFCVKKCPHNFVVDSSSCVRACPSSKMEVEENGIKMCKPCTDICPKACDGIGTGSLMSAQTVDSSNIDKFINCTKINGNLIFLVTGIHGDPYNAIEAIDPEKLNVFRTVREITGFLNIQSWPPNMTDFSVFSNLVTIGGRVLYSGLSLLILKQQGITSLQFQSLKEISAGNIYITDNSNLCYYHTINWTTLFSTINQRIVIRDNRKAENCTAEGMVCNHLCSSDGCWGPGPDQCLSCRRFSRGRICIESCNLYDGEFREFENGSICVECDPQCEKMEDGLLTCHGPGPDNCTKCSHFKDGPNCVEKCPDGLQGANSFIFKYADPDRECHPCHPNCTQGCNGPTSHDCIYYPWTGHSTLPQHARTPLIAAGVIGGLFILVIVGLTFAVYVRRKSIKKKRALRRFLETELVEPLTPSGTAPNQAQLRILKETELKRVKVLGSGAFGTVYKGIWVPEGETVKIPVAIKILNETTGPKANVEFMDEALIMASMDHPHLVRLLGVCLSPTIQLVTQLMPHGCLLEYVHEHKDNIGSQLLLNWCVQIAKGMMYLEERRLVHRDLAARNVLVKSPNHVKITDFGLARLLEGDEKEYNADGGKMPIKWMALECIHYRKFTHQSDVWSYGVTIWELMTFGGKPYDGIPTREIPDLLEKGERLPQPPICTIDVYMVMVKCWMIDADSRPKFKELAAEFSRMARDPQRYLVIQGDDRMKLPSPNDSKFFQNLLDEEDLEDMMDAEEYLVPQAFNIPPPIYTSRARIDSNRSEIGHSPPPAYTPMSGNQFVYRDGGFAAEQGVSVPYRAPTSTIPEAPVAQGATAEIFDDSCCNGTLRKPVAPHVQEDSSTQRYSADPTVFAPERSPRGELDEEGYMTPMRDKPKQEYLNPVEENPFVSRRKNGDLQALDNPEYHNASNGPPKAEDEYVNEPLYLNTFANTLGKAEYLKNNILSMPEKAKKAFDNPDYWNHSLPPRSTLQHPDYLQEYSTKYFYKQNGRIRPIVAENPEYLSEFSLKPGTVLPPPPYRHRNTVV
T1 sequence (P00533 whole entry, the tested form may be a part): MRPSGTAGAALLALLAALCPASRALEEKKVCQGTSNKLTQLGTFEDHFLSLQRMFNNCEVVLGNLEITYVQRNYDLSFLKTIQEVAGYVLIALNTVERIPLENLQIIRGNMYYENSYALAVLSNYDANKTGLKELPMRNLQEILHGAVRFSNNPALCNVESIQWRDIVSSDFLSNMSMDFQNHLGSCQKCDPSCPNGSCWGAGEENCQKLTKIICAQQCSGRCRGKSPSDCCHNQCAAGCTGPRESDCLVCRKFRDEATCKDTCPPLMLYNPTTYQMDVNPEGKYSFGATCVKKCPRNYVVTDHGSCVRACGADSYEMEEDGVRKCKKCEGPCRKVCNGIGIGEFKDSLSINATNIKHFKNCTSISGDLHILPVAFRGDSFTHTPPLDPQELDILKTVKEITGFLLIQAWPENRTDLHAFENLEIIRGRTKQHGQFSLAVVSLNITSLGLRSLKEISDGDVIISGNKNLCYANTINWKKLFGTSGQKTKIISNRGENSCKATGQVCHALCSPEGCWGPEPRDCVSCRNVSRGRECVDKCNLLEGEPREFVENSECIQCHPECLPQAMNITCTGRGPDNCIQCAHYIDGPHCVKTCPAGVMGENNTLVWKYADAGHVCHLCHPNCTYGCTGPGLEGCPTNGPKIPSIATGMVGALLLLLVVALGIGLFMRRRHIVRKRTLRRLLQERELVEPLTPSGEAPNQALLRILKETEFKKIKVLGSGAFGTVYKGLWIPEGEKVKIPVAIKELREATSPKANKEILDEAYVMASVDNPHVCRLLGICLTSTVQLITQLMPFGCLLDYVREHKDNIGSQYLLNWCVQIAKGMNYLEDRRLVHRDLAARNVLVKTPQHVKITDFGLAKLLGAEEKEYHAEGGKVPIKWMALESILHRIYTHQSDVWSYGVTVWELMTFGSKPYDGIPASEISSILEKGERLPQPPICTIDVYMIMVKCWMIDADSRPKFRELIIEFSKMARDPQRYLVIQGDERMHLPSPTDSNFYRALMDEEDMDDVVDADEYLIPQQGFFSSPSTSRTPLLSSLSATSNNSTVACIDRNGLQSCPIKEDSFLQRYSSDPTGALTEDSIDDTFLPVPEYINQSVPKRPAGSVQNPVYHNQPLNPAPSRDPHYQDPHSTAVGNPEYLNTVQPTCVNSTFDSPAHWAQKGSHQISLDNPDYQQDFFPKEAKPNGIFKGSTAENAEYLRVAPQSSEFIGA
T2 sequence (P04626 whole entry): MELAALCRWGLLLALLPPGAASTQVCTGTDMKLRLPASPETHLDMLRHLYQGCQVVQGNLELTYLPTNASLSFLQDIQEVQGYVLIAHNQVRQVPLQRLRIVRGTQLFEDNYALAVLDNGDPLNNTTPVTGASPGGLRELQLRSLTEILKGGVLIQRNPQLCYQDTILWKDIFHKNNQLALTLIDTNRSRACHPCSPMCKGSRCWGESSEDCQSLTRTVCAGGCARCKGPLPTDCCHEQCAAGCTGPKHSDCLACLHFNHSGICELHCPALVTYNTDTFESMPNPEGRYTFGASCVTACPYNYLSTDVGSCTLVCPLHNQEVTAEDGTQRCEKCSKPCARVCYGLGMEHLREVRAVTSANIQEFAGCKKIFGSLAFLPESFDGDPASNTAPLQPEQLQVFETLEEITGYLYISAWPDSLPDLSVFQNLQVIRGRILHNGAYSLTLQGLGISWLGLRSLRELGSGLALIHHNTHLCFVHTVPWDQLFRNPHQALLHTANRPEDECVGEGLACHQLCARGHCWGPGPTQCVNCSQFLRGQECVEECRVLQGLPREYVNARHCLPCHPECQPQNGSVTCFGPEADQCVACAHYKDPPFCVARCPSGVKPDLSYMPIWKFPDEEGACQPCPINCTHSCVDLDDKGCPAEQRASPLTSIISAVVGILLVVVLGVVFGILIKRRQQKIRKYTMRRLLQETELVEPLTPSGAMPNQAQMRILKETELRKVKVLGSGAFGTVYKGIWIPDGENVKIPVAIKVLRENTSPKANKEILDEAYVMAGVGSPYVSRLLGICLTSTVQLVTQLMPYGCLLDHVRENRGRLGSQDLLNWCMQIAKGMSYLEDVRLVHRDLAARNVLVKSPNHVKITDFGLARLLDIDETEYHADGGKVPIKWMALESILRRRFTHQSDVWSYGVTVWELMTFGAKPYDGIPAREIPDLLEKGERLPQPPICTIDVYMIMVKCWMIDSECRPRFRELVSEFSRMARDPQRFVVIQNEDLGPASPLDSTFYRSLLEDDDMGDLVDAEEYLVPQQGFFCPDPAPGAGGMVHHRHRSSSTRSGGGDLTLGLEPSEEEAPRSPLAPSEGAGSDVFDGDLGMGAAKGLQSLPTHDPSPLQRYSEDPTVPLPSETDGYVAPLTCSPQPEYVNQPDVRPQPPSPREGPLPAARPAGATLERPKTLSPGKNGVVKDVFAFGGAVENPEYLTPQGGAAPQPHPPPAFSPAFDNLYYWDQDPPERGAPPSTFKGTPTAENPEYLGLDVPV
Sequence of Insulin receptor (P06213 28-758 limits assumed): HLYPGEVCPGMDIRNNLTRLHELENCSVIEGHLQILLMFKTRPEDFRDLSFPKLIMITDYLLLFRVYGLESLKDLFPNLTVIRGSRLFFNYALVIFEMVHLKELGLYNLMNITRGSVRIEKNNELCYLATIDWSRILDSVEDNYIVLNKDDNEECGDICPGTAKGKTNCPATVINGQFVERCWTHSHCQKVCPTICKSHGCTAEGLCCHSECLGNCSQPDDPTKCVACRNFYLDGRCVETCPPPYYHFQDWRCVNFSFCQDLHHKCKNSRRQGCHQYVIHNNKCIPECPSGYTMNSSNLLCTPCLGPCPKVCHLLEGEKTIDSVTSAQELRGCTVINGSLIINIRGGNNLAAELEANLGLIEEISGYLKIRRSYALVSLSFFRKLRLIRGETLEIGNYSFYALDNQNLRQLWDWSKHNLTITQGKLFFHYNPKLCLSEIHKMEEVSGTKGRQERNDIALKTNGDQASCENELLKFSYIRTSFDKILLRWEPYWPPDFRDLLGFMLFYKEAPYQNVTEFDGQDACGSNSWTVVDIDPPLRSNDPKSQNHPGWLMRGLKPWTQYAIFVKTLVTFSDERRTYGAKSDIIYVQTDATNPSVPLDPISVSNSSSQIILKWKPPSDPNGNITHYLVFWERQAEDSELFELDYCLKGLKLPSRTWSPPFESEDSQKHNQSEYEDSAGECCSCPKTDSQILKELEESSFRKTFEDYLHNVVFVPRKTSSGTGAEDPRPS
Sequence of Insulin receptor (P06213 763-1382 limits assumed): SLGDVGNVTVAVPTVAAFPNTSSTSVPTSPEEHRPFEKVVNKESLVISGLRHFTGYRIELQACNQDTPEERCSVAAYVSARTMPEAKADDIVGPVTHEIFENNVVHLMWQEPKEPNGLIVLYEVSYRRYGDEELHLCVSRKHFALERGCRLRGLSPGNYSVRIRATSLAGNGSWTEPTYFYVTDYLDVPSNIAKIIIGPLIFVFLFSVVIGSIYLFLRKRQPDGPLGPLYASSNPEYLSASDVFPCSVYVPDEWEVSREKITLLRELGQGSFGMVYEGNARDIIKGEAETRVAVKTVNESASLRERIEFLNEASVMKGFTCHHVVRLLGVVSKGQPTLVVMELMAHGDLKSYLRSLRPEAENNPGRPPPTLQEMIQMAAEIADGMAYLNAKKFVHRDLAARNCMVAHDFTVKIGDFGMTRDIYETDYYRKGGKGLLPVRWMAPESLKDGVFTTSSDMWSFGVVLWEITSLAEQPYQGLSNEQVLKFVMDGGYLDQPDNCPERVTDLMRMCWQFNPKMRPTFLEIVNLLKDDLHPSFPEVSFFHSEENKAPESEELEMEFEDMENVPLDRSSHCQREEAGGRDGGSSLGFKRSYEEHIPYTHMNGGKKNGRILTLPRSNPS

SMILES: O=C(C#CCCN1CCOCC1)Nc1ccc2ncnc(Nc3ccc(F)c(Cl)c3)c2c1
pIC50 [1]: 8.37
pIC50 [2]: 8.77
pIC50 [3]: 7.92
pIC50 [4]: 8.12
pIC50 [5]: 8.64

SMILES: O=C(C#CCN1CCOCC1)Nc1cc2c(Nc3ccc(F)c(Cl)c3)ncnc2cn1
pIC50 [1]: 8.21
pIC50 [2]: 8.51
pIC50 [3]: 7.85
pIC50 [4]: 7.66
pIC50 [5]: 7.59

SMILES: CCCCN(CC#CC(=O)Nc1cc2c(Nc3ccc(F)c(Cl)c3)ncnc2cn1)CCCC
pIC50 [1]: 7.14
pIC50 [2]: 7.77
pIC50 [3]: 7.31
pIC50 [4]: 6.49
pIC50 [5]: 7.17

SMILES: CCN(CC)CC#CC(=O)Nc1ccc2ncnc(Nc3ccc(F)c(Cl)c3)c2c1
pIC50 [1]: 6.51
pIC50 [2]: 8.51
pIC50 [3]: 8.17
pIC50 [4]: 8.12
pIC50 [5]: 7.34

SMILES: C#CC(=O)Nc1cc2c(Nc3cccc(Br)c3)ncnc2cn1
pIC50 [1]: 7.89
pIC50 [2]: 9.22
pIC50 [3]: 7.82
pIC50 [5]: 8.62

SMILES: CCCCC#CC(=O)Nc1cc2c(Nc3ccc(F)c(Cl)c3)ncnc2cn1
pIC50 [1]: 8.15
pIC50 [2]: 7.82
pIC50 [3]: 8.35
pIC50 [4]: 7.70
pIC50 [5]: 8.27

SMILES: CCCC#CC(=O)Nc1cc2c(Nc3ccc(F)c(Cl)c3)ncnc2cn1
pIC50 [1]: 8.62
pIC50 [2]: 8.77
pIC50 [3]: 8.02
pIC50 [4]: 6.77
pIC50 [5]: 8.42

SMILES: CCCCN(CC#CC(=O)Nc1ccc2ncnc(Nc3ccc(F)c(Cl)c3)c2c1)CCCC
pIC50 [1]: 6.20
pIC50 [2]: 7.40
pIC50 [3]: 7.96
pIC50 [4]: 7.49
pIC50 [5]: 6.33

SMILES: O=C(C#CCCN1CCOCC1)Nc1cc2c(Nc3ccc(F)c(Cl)c3)ncnc2cn1
pIC50 [1]: 9.00
pIC50 [2]: 8.89
pIC50 [3]: 8.74
pIC50 [4]: 8.30
pIC50 [5]: 9.10

SMILES: CN1CCN(CCC#CC(=O)Nc2cc3c(Nc4ccc(F)c(Br)c4)ncnc3cn2)CC1
pIC50 [1]: 9.10
pIC50 [2]: 8.96
pIC50 [3]: 8.57
pIC50 [4]: 8.46
pIC50 [5]: 9.30

Continued, in another order:

pIC50 [1]: 6.64
pIC50 [2]: 7.07
pIC50 [3]: 7.51
pIC50 [4]: 6.76
pIC50 [5]: 6.52
SMILES: O=C(C#CCN1CCOCC1)Nc1ccc2ncnc(Nc3ccc(F)c(Cl)c3)c2c1

pIC50 [1]: 9.30
pIC50 [4]: 7.62
pIC50 [5]: 8.96
SMILES: CC#CC(=O)Nc1cc2c(Nc3ccc(F)c(Cl)c3)ncnc2cn1

pIC50 [1]: 6.19
pIC50 [2]: 7.82
pIC50 [3]: 7.32
pIC50 [4]: 6.94
pIC50 [5]: 6.22
SMILES: CCN(CC)CC#CC(=O)Nc1cc2c(Nc3ccc(F)c(Cl)c3)ncnc2cn1

pIC50 [1]: 9.00
pIC50 [2]: 8.82
pIC50 [3]: 8.35
pIC50 [4]: 9.30
pIC50 [5]: 9.15
SMILES: O=C(C#CCCN1CCOCC1)Nc1cc2c(Nc3ccc(F)c(Br)c3)ncnc2cn1

pIC50 [1]: 8.74
pIC50 [2]: 9.05
pIC50 [3]: 8.37
pIC50 [4]: 8.70
pIC50 [5]: 8.68
SMILES: O=C(C#CCCN1CCCCC1)Nc1cc2c(Nc3ccc(F)c(Cl)c3)ncnc2cn1

IC50 [6]: > 50000 nM
pIC50 [1]: 8.92
AUC [8]: 7.47 µg·h/mL
bioavailability [9]: 67.8%
Vd [10]: 1.7 L/kg
AUC [11]: 15.2 µg·h/mL
AUC [12]: 0.703 µg·h/mL
Vd [13]: 0.93 L/kg
pIC50 [14]: 9.10
Tmax [15]: 4.7 h
clearance [16]: 7.13 L/h/kg
Tmax [17]: 3.5 h
half-life [18]: 0.83 h
bioavailability [19]: 11.4%
Cmax [20]: 4.18 µg/mL
Cmax [21]: 0.0563 µg/mL
AUC [23]: 0.24 µg·h/mL
Vd [25]: 3.1 L/kg
pIC50 [4]: 9.00
Tmax [26]: 1 h
half-life [27]: 1.86 h
bioavailability [28]: 6.75%
Cmax [29]: 0.0835 µg/mL
pIC50 [30]: < 4.30
AUC [32]: 1.19 µg·h/mL
pIC50 [5]: 9.15
clearance [34]: 0.69 L/h/kg
AUC [35]: 0.485 µg·h/mL
pIC50 [36]: < 4.30
half-life [37]: 0.37 h
clearance [38]: 5.15 L/h/kg
SMILES: CN1CCN(CCC#CC(=O)Nc2cc3c(Nc4ccc(F)c(Cl)c4)ncnc3cn2)CC1
Activity [7]: Active
Activity [22]: Active
Activity [24]: Active
Activity [31]: Active
Activity [33]: Active

pIC50 [1]: 7.80
pIC50 [2]: 8.74
pIC50 [3]: 8.35
pIC50 [4]: 7.64
pIC50 [5]: 8.59
SMILES: CCN(CC)CCC#CC(=O)Nc1ccc2ncnc(Nc3ccc(F)c(Cl)c3)c2c1

pIC50 [1]: 8.77
pIC50 [5]: 8.72
SMILES: C#CC(=O)Nc1ccc2ncnc(Nc3cccc(Br)c3)c2c1

pIC50 [1]: 6.27
pIC50 [2]: 7.36
pIC50 [3]: 7.14
pIC50 [4]: 7.44
pIC50 [5]: < 6.00
SMILES: CC(C)N(CC#CC(=O)Nc1cc2c(Nc3ccc(F)c(Cl)c3)ncnc2cn1)C(C)C

pIC50 [4]: 7.19
pIC50 [5]: 8.55
SMILES: CC(C)N(CC#CC(=O)Nc1ccc2ncnc(Nc3ccc(F)c(Cl)c3)c2c1)C(C)C

pIC50 [1]: 8.14
pIC50 [2]: 8.85
pIC50 [3]: 7.60
pIC50 [4]: 7.37
pIC50 [5]: 8.68
SMILES: O=C(C#CCO)Nc1ccc2ncnc(Nc3ccc(F)c(Cl)c3)c2c1

pIC50 [1]: 7.92
pIC50 [5]: 7.77
SMILES: CC#CC(=O)Nc1ccc2ncnc(Nc3cccc(Br)c3)c2c1
